Reference: patent US20250002475A1 (EPICS THERAPEUTICS, priority 2023, published 2025)

Target: T1, recombinant METTL3/METTL14 complex (Homo sapiens, UniProt Q86U44)
T1 construct: purchased Active Motif 311970; host or cells: Sf9 cells
Assay: METTL3/14 Scintillation Proximity Assay (SPA), RNA methyltransferase activity
Type: biochemical
Conditions: 5.31 nM METTL3/14 complex, 250 nM RNA substrate, 1 μM 3H-SAM, 90 min; for compounds marked * best of the two separated forms

T1 sequence (Q86U44 whole entry): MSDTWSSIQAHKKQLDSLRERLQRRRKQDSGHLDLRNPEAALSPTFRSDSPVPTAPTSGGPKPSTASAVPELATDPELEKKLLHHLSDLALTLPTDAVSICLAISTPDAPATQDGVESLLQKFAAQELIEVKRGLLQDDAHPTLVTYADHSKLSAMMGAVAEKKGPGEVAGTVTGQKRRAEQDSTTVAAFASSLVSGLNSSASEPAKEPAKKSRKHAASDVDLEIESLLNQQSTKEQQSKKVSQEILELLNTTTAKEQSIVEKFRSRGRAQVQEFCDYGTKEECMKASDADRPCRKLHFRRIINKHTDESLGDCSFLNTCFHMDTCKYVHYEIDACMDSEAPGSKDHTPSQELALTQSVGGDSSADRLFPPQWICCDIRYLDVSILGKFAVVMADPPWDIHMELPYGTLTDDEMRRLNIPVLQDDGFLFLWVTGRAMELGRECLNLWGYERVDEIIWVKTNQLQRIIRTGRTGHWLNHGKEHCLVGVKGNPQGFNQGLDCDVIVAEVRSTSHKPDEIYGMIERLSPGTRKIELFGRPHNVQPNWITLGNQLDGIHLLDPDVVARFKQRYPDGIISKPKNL
T1 sequence (Q9HCE5 whole entry partner): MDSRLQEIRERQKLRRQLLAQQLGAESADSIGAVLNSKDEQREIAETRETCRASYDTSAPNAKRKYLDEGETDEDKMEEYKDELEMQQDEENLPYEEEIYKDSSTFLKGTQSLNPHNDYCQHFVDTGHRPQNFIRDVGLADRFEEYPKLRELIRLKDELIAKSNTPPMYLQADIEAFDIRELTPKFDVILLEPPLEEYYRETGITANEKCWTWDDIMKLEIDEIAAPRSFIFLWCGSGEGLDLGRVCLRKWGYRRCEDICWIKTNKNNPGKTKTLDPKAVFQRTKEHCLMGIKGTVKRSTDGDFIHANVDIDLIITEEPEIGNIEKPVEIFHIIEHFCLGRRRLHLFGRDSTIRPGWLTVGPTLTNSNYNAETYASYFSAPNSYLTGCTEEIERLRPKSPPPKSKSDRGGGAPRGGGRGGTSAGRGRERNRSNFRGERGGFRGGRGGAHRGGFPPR

SMILES	IC50 [µM]
COc1cncc(-c2cn(Cc3ccc(N4C[C@H](NCC5CCC5)CC[C@@H]4C)nn3)nn2)c1 [Compound 038, (3R,6S)-N-(cyclobutylmethyl)-1-(6-((4-(5-methoxypyridin-3-yl)-1H-1,2,3-triazol-1-yl)methyl)pyridazin-3-yl)-6-methylpiperidin-3-amine]	0.05 to 0.5
CC(NC(=S)c1cc(=O)n2ccccc2n1)c1ccc(N2CCC[C@@H](NCC3CCC3)C2)nn1 (mixture of isomers) [Compound 111, N-(1-(6-((R)-3-((cyclobutylmethyl)amino)piperidin-1-yl)pyridazin-3-yl)ethyl)-4-oxo-4H-pyrido[1,2-a]pyrimidine-2-carbothioamide]	0.05 to 0.5
CC(NC(=O)c1cc(=O)n2ccccc2n1)c1ccc(N2CCC[C@@H](NC3CCCC3)C2)cn1 (single isomer, unassigned) [Compound 117]	0.05 to 0.5
CC(C(=O)Nc1cncc(N(C)C)c1)n1ccc(N2CCC[C@@H](NCC3CCC3)C2)cc1=O (mixture of isomers) [Compound 162, 2-(4-((R)-3-((cyclobutylmethyl)amino)piperidin-1-yl)-2-oxopyridin-1(2H)-yl)-N-(5-(dimethylamino)pyridin-3-yl)propanamide]	0.05 to 0.5
N#Cc1cncc(-c2cn(Cc3ccc(N4CCC[C@@H](NCC5CCC5)C4)nn3)nn2)c1 [Compound 021, (R)-5-(1-((6-(3-((cyclobutylmethyl)amino)piperidin-1-yl)pyridazin-3-yl)methyl)-1H-1,2,3-triazol-4-yl)nicotinonitrile]	0.05 to 0.5
O=C(Nc1cnc2[nH]ccc2c1)C1(c2ccc(N3CCC[C@@H](NCC4CCC4)C3)cn2)COC1 [Compound 299, (R)-3-(5-(3-((cyclobutylmethyl)amino)piperidin-1-yl)pyridin-2-yl)-N-(1H-pyrrolo[2,3-b]pyridin-5-yl)oxetane-3-carboxamide]	0.05 to 0.5
O=c1[nH]c(-c2cn(Cc3ccc(N4CCC[C@@H](NCC5CCC5)C4)nn3)nn2)nc2ccccc12 [Compound 029, (R)-2-(1-((6-(3-((cyclobutylmethyl)amino)piperidin-1-yl)pyridazin-3-yl)methyl)-1H-1,2,3-triazol-4-yl)quinazolin-4(3H)-one]	0.05 to 0.5
Cc1cncc(-c2cn(C(C)n3ccc(N4CCC[C@@H](NCC5CCC5)C4)cc3=O)nn2)c1 (mixture of isomers) [Compound 080, 4-((R)-3-((cyclobutylmethyl)amino)piperidin-1-yl)-1-(1-(4-(5-methylpyridin-3-yl)-1H-1,2,3-triazol-1-yl)ethyl)pyridin-2(1H)-one]	≤ 0.05
O=c1[nH]c(-c2cn(Cc3ccc(N4CCC[C@@H](NCC5CCC5)C4)nn3)nn2)cc2ccccc12 [Compound 048, (R)-3-(1-((6-(3-((cyclobutylmethyl)amino)piperidin-1-yl)pyridazin-3-yl)methyl)-1H-1,2,3-triazol-4-yl)isoquinolin-1(2H)-one]	≤ 0.05
COc1cncc(C(=O)NCc2ccc(N3CCC[C@@H](NCC4CCC4)C3)nn2)c1 [Compound 004, (R)-N-((6-(3-((cyclobutylmethyl)amino)piperidin-1-yl)pyridazin-3-yl)methyl)-5-methoxynicotinamide]	0.5 to 3.5
COc1cncc(NC(=O)C(C)c2ccc(N3CCC[C@@H](NCC4CCC4)C3)nn2)c1 (stereo partly drawn) [Compound 141, 2-(6-((R)-3-((cyclobutylmethyl)amino)piperidin-1-yl)pyridazin-3-yl)-N-(5-methoxypyridin-3-yl)propanamide]	0.05 to 0.5
CC(c1ccc(N2CCC[C@@H](NCC3CCC3)C2)nn1)n1cc(-c2cc(=O)n3ccccc3n2)nn1 (stereo partly drawn) [Compound 089, 2-(1-(1-(6-((R)-3-((cyclobutylmethyl)amino)piperidin-1-yl)pyridazin-3-yl)ethyl)-1H-1,2,3-triazol-4-yl)-4H-pyrido[1,2-a]pyrimidin-4-one]	≤ 0.05
CC(n1cc(-c2cncc(OC(F)F)c2)nn1)n1ccc(N2CCC[C@@H](NCC3CCC3)C2)cc1=O (some centres unmarked) [Compound 131]	≤ 0.05
CC(c1cnn(-c2cc(N(C)C)cnn2)c1)n1ccc(N2CCC[C@@H](NCC3CC3)C2)cc1=O (mixture of isomers) [Compound 224, 4-((R)-3-((cyclopropylmethyl)amino)piperidin-1-yl)-1-(1-(1-(5-(dimethylamino)pyridazin-3-yl)-1H-pyrazol-4-yl)ethyl)pyridin-2(1H)-one]	≤ 0.05
CNc1cncc(-c2cn(C(C)n3ccc(N4CCC[C@@H](NCC5CCC5)C4)cc3=O)nn2)n1 (stereo partly drawn) [Compound 121, 4-((R)-3-((cyclobutylmethyl)amino)piperidin-1-yl)-1-(1-(4-(6-(methylamino)pyrazin-2-yl)-1H-1,2,3-triazol-1-yl)ethyl)pyridin-2(1H)-one]	≤ 0.05
CC(C(=O)Nc1cncc(N2CCCC2)n1)c1ccc(N2CCC[C@@H](NCC3CCC3)C2)cc1 (single isomer, unassigned) [Compound 294]	≤ 0.05
COc1cncc(-c2cn(C3(c4ccc(N5CCC[C@@H](NCC6CCC6)C5)nn4)CC3)nn2)c1 [Compound 115, (R)-N-(cyclobutylmethyl)-1-(6-(1-(4-(5-methoxypyridin-3-yl)-1H-1,2,3-triazol-1-yl)cyclopropyl)pyridazin-3-yl)piperidin-3-amine]	≤ 0.05
COc1cc(-c2cn(Cc3ccc(N4CCC[C@@H](NC5CCOC5)C4)nn3)nn2)c2cn[nH]c2c1 (single isomer, unassigned) [Compound 033]	≤ 0.05
COc1cncc(-c2noc(C(C)n3ccc(N4CCC[C@@H](NCC5CCC5)C4)cc3=O)n2)c1 (stereo partly drawn) [Compound 125, 4-((R)-3-((cyclobutylmethyl)amino)piperidin-1-yl)-1-(1-(3-(5-methoxypyridin-3-yl)-1,2,4-oxadiazol-5-yl)ethyl)pyridin-2(1H)-one]	0.05 to 0.5
Cn1c(N2CCCC2)cc(-c2cn(C3(c4ccc(N5CCC[C@@H](NCC6CC6)C5)cn4)COC3)nn2)cc1=O [Compound 314, (R)-4-(1-(3-(5-(3-((cyclopropylmethyl)amino)piperidin-1-yl)pyridin-2-yl)oxetan-3-yl)-1H-1,2,3-triazol-4-yl)-1-methyl-6-(pyrrolidin-1-yl)pyridin-2(1H)-one]	≤ 0.05
COc1cncc(-c2ncc(C(C)(O)c3ccc(N4CCC[C@@H](NCC5CCC5)C4)cn3)s2)c1 (single isomer, unassigned) [Compound 165]	≤ 0.05
CC(C(=O)Nc1cncc(N(C)C)c1)c1ccc(N2CCC[C@@H](NCC3CCC3)C2)nn1 (stereo partly drawn) [Compound 157, 2-(6-((R)-3-((cyclobutylmethyl)amino)piperidin-1-yl)pyridazin-3-yl)-N-(5-(dimethylamino)pyridin-3-yl)propanamide]	0.05 to 0.5
CC(n1cnc(-c2cncc(N(C)C)c2)c1)n1ccc(N2CCC[C@@H](NCC3CC3)C2)cc1=O (single isomer, unassigned) [Compound 266]	≤ 0.05

Next, values leading:

IC50 [µM]	SMILES
≤ 0.05	O=c1cc(-c2cn(Cc3ccc(N4CCC[C@@H](NCC5CCC5)C4)cc3)nn2)nc2ccccn12 [Compound 128, (R)-2-(1-(4-(3-((cyclobutylmethyl)amino)piperidin-1-yl)benzyl)-1H-1,2,3-triazol-4-yl)-4H-pyrido[1,2-a]pyrimidin-4-one]
≤ 0.05	CC(n1cnc(-c2cc(=O)n3ccccc3n2)c1)n1ccc(N2CCC[C@@H](NCC3CCC3)C2)cc1=O (single isomer, unassigned) [Compound 170]
≤ 0.05	CC(NC(=O)c1cc(=S)n2ccccc2n1)c1ccc(N2CCC[C@@H](NCC3CCC3)C2)nn1 (single isomer, unassigned) [Compound 110]
≤ 0.05	COc1ccc(C(=O)NC(C)c2ccc(N3CCC[C@@H](NCC4CCC4)C3)nn2)c2cn[nH]c12 (mixture of isomers) [Compound 092, N-(1-(6-((R)-3-((cyclobutylmethyl)amino)piperidin-1-yl)pyridazin-3-yl)ethyl)-7-methoxy-1H-indazole-4-carboxamide]
≤ 0.05	CC(n1cc(-c2cncc(Br)c2)nn1)n1ccc(N2CCC[C@@H](NCC3CCC3)C2)cc1=O (single isomer, unassigned) [Compound 152]
≤ 0.05	O=C(NCc1ccc(N2CCC[C@@H](NCC3CCC3)C2)cc1)c1cc(=O)n2ccccc2n1 [Compound 070, (R)-N-(4-(3-((cyclobutylmethyl)amino)piperidin-1-yl)benzyl)-4-oxo-4H-pyrido[1,2-a]pyrimidine-2-carboxamide]
≤ 0.05	COc1cnc(C)c(-c2cn(C(C)n3ccc(N4CCC[C@@H](NCC5CCC5)C4)cc3=O)nn2)c1 (stereo partly drawn) [Compound 114, 4-((R)-3-((cyclobutylmethyl)amino)piperidin-1-yl)-1-(1-(4-(5-methoxy-2-methylpyridin-3-yl)-1H-1,2,3-triazol-1-yl)ethyl)pyridin-2(1H)-one]
≤ 0.05	CC(n1cc(-c2cccnc2)nn1)n1ccc(N2CCC[C@@H](NCC3CCC3)C2)cc1=O (stereo partly drawn) [Compound 079, 4-((R)-3-((cyclobutylmethyl)amino)piperidin-1-yl)-1-(1-(4-(pyridin-3-yl)-1H-1,2,3-triazol-1-yl)ethyl)pyridin-2(1H)-one]
≤ 0.05	COc1cncc(-c2nnc(C(C)n3ccc(N4CCC[C@@H](NCC5CCC5)C4)cc3=O)s2)c1 (stereo partly drawn) [Compound 119, 4-((R)-3-((cyclobutylmethyl)amino)piperidin-1-yl)-1-(1-(5-(5-methoxypyridin-3-yl)-1,3,4-thiadiazol-2-yl)ethyl)pyridin-2(1H)-one]
≤ 0.05	C=C(c1ccc(N2CCC[C@@H](NCC3CCC3)C2)cc1)n1cc(-c2cncc(N(C)C)c2)nn1 [Compound 155, (R)-5-(1-(1-(4-(3-((cyclobutylmethyl)amino)piperidin-1-yl)phenyl)vinyl)-1H-1,2,3-triazol-4-yl)-N,N-dimethylpyridin-3-amine]
≤ 0.05	Cc1cc(N2CCC[C@@H](NCC3CC3)C2)cnc1C(C)n1cc(-c2cncc(C3CC3)c2)nn1 (single isomer, unassigned) [Compound 318]
≤ 0.05	CC(C(=O)Nc1cncc(N2CCCC2)c1)c1ccc(N2CCC[C@@H](NCC3CC3)C2)nn1 (stereo partly drawn) [Compound 251, 2-(6-((R)-3-((cyclopropylmethyl)amino)piperidin-1-Yl)pyridazin-3-yl)-N-(5-(pyrrolidin-1-yl)pyridin-3-yl)propanamide]
